Source: patent US20070031341A1, “Methods of delivering therapeutics to the brain” (priority 2005, published 2007)

Tests used:
[1] = system: cerebellar granule cells exposed to MPP+ neurotoxin; details: 100 μM Vitamin E; about 50% without; cited from earlier work
[2] = cited from earlier work
[3] = pKa and protonated cationic fraction of lubeluzole; format: physicochemical
From the text: Because lubeluzole has a PKa of 7.6 it is present in its protonated cationic form at pHs less than 7.6. For example, at pHs of 7.4 and 6.0, about 61% and 97% of lubeluzole is respectively present in its protonated cationic form. Therefore, the skilled artisan can expect a significant amount of lubeluzole to be present in its cationic form at relatively mild pHs and particularly at the pHs of physiologic CSF (˜7.5). Moreover, support for the transport of benzothiazole derivatives is found in the literature. Levamisole is believed to be a benzothiazole derivativethat has been transdermally transported iontophoretically in order to treat herpes simplex virus and recurrent aphthous stomatitis.

Vitamin E
in vitro viability of cerebellar granule cells exposed to MPP+ [1]: about 85%

CN(c1nc2ccccc2s1)C1CCN(C[C@H](O)COc2ccc(F)c(F)c2)CC1 [lubeluzole]
PKa [2]: 7.6 | lubeluzole present in its protonated cationic form ([3]; pH 6.0): ~97% | lubeluzole present in its protonated cationic form ([3]; pH 7.4): about 61%
